pIC50, pKi: −log10 of the molar value. In brackets after ≈: the same amount, converted by molar mass. Activity calls are given as the source filed them. The rule behind the calls is not given here.
Columns and labels:
[1] = molecular target: T1, Transmembrane protease serine 6 (Homo sapiens) (UniProt Q8IU80); assay: Inhibition of recombinant human TMPRSS6 at 100 nM by Michaelis-Menten analysis relative to control
T1 sequence (whole entry): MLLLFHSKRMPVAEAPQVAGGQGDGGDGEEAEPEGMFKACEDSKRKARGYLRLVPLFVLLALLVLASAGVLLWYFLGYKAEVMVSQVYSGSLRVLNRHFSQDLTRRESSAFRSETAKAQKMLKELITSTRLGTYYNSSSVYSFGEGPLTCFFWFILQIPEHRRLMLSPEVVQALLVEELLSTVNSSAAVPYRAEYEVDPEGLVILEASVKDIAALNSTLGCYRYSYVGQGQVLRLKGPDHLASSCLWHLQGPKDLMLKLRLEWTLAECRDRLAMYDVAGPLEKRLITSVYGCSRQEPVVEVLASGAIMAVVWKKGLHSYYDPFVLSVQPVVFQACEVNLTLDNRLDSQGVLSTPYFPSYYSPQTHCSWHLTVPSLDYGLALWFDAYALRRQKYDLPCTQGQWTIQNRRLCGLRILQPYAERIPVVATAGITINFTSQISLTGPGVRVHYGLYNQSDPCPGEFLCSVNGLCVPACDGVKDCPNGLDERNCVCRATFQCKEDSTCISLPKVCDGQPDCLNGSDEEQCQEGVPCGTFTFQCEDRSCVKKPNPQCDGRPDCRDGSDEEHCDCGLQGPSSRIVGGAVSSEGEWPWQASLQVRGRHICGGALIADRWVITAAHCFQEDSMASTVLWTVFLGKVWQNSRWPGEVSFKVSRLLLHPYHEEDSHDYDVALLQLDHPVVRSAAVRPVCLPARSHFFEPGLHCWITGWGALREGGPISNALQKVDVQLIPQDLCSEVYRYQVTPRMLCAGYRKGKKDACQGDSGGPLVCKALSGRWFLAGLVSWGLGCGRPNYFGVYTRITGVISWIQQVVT

[2] = molecular target: T2, Suppressor of tumorigenicity 14 protein (Homo sapiens) (UniProt Q9Y5Y6); assay: Inhibition of recombinant human Matriptase at 100 nM by Michaelis-Menten analysis relative to control
T2 sequence (whole entry): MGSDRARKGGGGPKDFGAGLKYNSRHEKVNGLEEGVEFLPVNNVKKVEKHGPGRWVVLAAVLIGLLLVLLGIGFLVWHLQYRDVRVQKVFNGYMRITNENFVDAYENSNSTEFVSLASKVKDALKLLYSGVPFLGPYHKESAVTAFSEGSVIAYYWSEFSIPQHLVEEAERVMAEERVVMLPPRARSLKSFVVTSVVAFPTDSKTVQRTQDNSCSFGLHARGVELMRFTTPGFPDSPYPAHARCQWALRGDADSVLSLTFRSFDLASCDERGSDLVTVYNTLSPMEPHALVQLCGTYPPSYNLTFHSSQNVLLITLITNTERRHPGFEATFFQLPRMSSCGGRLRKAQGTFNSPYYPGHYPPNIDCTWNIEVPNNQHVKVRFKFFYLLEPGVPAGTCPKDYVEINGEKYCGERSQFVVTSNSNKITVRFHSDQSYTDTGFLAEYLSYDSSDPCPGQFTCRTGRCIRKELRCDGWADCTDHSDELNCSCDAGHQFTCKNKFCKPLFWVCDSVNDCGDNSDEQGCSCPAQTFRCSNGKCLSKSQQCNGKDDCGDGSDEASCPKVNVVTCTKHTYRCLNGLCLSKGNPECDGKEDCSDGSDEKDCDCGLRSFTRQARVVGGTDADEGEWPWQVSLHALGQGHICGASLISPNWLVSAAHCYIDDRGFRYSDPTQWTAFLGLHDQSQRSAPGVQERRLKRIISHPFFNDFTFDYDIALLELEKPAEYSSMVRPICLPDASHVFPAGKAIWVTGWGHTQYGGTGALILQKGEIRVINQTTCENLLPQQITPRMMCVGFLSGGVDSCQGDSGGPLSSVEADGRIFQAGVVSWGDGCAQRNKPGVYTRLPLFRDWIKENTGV

[3] = molecular target: T3, Transmembrane protease serine 6 (Homo sapiens, UniProt Q8IU80); assay: Binding affinity to recombinant human TMPRSS6 using Boc-QAR-AMC as substrate assessed as inhibition constant by fluorescence based analysis
T3 sequence (Q8IU80 whole entry): T1 sequence (whole entry)

[4] = molecular target: T4, Suppressor of tumorigenicity 14 protein (Homo sapiens, UniProt Q9Y5Y6); assay: Binding affinity to recombinant human Matriptase using Boc-QAR-AMC as substrate assessed as inhibition constant by fluorescence based analysis
T4 sequence (Q9Y5Y6 whole entry): T2 sequence (whole entry)

Homo sapiens [5] = species on record: Homo sapiens; assay: Selectivity index, ratio of Ki for binding affinity to recombinant human Matriptase using Boc-QAR-AMC as substrate assessed as inhibition constant by fluorescence based analysis to Ki for binding affinity to recombinant human TMPRSS6 using Boc-QAR-AMC as substrate assessed as inhibition constant by fluorescence based analysis
[6] = molecular target: T4, Suppressor of tumorigenicity 14 protein; assay: Mixed inhibition of recombinant human Matriptase using Boc-QAR-AMC as substrate assessed as inhibition constant by fluorescence based analysis
[7] = molecular target: T3, Transmembrane protease serine 6; assay: Competitive tight binding inhibition of recombinant human TMPRSS6 using Boc-QAR-AMC as substrate assessed as inhibition constant by fluorescence based analysis
Homo sapiens [8] = species on record: Homo sapiens; assay: Selectivity index, ratio of Ki for mixed inhibition of recombinant human Matriptase using Boc-QAR-AMC as substrate assessed as inhibition constant by fluorescence based analysis to Ki for competitive tight binding inhibition of recombinant human TMPRSS6 using Boc-QAR-AMC as substrate assessed as inhibition constant by fluorescence based analysis
Prothrombin = Prothrombin (Homo sapiens, UniProt P00734); assay: Inhibition of recombinant human thrombin using Boc-QAR-AMC as substrate assessed as inhibition constant by fluorescence based analysis
Coagulation factor X = Coagulation factor X (Homo sapiens, UniProt P00742); assay: Inhibition of recombinant human FXA using Boc-QAR-AMC as substrate assessed as inhibition constant by fluorescence based analysis
Furin = Furin (Homo sapiens, UniProt P09958); assay: Inhibition of recombinant human furin using Boc-RVRR-AMC as substrate assessed as inhibition constant by fluorescence based analysis
[9] = Cytotoxicity against HEK cells assessed as reduction in cell viability measured for 24 hrs by celltiter-glo 2.0 assay; type: toxicity, cell-based; settings: human
[10] = molecular target: T3, Transmembrane protease serine 6; assay: Inhibition of human TMPRSS6 transfected in HEK293SL cells using Boc-QAR-AMC as substrate measured for 24 hrs; type: cell-based
[11] = molecular target: T4, Suppressor of tumorigenicity 14 protein; assay: Inhibition of human Matriptase transfected in HEK293SL cells using Boc-QAR-AMC as substrate measured for 24 hrs; type: cell-based
Homo sapiens [12] = species on record: Homo sapiens; assay: Selectivity index, ratio of IC50 for inhibition of human Matriptase transfected in HEK293SL cells using Boc-QAR-AMC as substrate to IC50 for inhibition of human TMPRSS6 transfected in HEK293SL cells using Boc-QAR-AMC as substrate; type: cell-based
[13] = Solubility of compound in PBS at pH 7.4 measured for 90 mins by UPLC analysis; type: physicochemical; settings: buffer, pH 7.4, 1.5 h
[14] = Stability in Sprague-Dawley rat plasma assessed as parent compound remaining at 24 hrs by UPLC-MS analysis; type: ADME, cell-free
[15] = Metabolic stability in Sprague-Dawley rat microsome assessed as half life measured for 120 mins in presence of NADPH by UPLC-MS analysis; type: ADME; settings: microsomes, 2 h
[16] = Metabolic stability in Sprague-Dawley rat microsome assessed as intrinsic clearance measured for 120 mins in presence of NADPH by UPLC-MS analysis; type: ADME; settings: microsomes, 2 h
[17] = Apparent Permeability of compound in PBS buffer at pH 7.4 incubated for 17 hrs by PAMPA assay; type: ADME; settings: pH 7.4, 17 h
Caco-2 = assay: Disruption of epithelial integrity in human Caco-2 cells assessed as change in TEER modulation after 8 days; type: functional, cell-based; settings: Caco-2, 192 h

Sequence of Furin (P09958 whole entry): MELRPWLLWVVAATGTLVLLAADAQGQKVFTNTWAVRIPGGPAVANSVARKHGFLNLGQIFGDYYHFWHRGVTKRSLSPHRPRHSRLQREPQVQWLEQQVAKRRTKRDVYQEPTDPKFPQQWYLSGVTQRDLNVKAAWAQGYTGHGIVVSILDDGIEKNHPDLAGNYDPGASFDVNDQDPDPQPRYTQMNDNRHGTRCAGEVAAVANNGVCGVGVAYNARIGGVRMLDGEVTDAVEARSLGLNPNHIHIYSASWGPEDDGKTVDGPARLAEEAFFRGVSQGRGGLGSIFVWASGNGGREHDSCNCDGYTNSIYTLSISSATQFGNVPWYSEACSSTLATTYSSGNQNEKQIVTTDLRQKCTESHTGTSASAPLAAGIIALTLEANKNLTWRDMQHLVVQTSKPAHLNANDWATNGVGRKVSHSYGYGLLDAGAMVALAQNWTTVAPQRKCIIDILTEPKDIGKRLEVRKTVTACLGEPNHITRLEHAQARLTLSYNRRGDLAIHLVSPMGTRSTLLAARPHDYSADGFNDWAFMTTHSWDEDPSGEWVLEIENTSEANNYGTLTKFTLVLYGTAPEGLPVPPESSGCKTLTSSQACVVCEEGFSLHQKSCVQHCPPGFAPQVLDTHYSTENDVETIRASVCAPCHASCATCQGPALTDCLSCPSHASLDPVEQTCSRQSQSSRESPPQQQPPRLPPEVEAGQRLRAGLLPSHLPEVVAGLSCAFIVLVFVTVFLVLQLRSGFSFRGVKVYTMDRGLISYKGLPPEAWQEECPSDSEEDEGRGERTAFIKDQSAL
Sequence of Coagulation factor X (P00742 41-179 limits assumed): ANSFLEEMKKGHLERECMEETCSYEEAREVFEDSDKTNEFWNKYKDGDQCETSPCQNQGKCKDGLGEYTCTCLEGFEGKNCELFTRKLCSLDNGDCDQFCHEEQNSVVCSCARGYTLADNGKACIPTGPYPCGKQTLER
Sequence of Coagulation factor X (P00742 235-488 limits assumed): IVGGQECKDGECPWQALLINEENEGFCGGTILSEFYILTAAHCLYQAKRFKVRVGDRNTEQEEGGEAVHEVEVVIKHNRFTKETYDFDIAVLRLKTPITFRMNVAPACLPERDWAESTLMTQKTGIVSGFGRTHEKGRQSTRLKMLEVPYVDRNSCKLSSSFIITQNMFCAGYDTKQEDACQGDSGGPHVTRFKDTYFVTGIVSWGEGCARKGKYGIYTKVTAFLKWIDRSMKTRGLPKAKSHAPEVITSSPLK

## N=C(N)NCCC[C@H](NC(=O)[C@H](CC12CC3CC(CC(C3)C1)C2)NC(=O)[C@H](Cc1cscn1)NC(=O)CCc1ccccc1)C(=O)c1nc2ccccc2s1
[1]
  inhibition: inactive
[2]
  inhibition: inactive

## N=C(N)NCCC[C@H](NC(=O)[C@@H](NC(=O)[C@H](Cc1cscn1)NC(=O)CCc1ccccc1)C1CCCCC1)C(=O)c1nc2ccccc2s1
[3]
  pKi: 8.47
[4]
  pKi: 7.00
Homo sapiens [5]
  Ratio Ki: 29
[6]
  pKi: 7.00
[7]
  pKi: 8.28
Homo sapiens [8]
  Ratio Ki: 19
Prothrombin
  pKi: 6.92
Coagulation factor X
  pKi: < 5.00
Furin
  pKi: < 5.00
[9]
  Activity: Non-Toxic
[10]
  pIC50: 7.66
[11]
  pIC50: 6.45
Homo sapiens [12]
  Ratio IC50: 16
[13]
  solubility: 158 µM (≈ 113 µg/mL)
[14]
  Stability: 65%
[15]
  t1/2: > 2 h
[16]
  CLH: 1.12 µL/min/mg
[17]
  Papp: 0.017 10^-6 cm/s

## N=C(N)NCCC[C@H](NC(=O)[C@H](Cc1ccc(OCc2ccccc2)cc1)NC(=O)[C@H](Cc1cscn1)NC(=O)CCc1ccccc1)C(=O)c1nc2ccccc2s1
[3]
  pKi: 8.25
[4]
  pKi: 7.57
Homo sapiens [5]
  Ratio Ki: 4.8

## N=C(N)NCCC[C@H](NC(=O)[C@H](CCC1CCCCC1)NC(=O)[C@H](Cc1cscn1)NC(=O)CCc1ccccc1)C(=O)c1nc2ccccc2s1
[3]
  pKi: 8.08
[4]
  pKi: 7.91
Homo sapiens [5]
  Ratio Ki: 1.5

## CC(C)C[C@H](NC(=O)[C@H](Cc1cscn1)NC(=O)CCc1ccccc1)C(=O)N[C@@H](CCCNC(=N)N)C(=O)c1nc2ccccc2s1
[3]
  pKi: 8.82
[4]
  pKi: 8.30
Homo sapiens [5]
  Ratio Ki: 3.3

## N=C(N)NCCC[C@H](NC(=O)[C@H](CC1CCCCC1)NC(=O)[C@H](Cc1cscn1)NC(=O)CCc1ccccc1)C(=O)c1nc2ccccc2s1
[3]
  pKi: 8.41
[4]
  pKi: 8.04
Homo sapiens [5]
  Ratio Ki: 2.3

## N=C(N)NCCC[C@H](NC(=O)[C@H](Cc1ccc2ccccc2c1)NC(=O)[C@H](Cc1cscn1)NC(=O)CCc1ccccc1)C(=O)c1nc2ccccc2s1
[3]
  pKi: 8.10
[4]
  pKi: 7.28
Homo sapiens [5]
  Ratio Ki: 6.7

## N=C(N)NCCC[C@H](NC(=O)[C@@H](NC(=O)[C@H](Cc1cscn1)NC(=O)CCc1ccccc1)c1ccccc1)C(=O)c1nc2ccccc2s1
[3]
  pKi: 7.90
[4]
  pKi: 7.47
Homo sapiens [5]
  Ratio Ki: 2.6

## N=C(N)NCCC[C@H](NC(=O)[C@H](CCc1ccccc1)NC(=O)[C@H](Cc1cscn1)NC(=O)CCc1ccccc1)C(=O)c1nc2ccccc2s1
[3]
  pKi: 8.66
[4]
  pKi: 8.48
Homo sapiens [5]
  Ratio Ki: 1.5

## CC(C)(C)C[C@H](NC(=O)[C@H](Cc1cscn1)NC(=O)CCc1ccccc1)C(=O)N[C@@H](CCCNC(=N)N)C(=O)c1nc2ccccc2s1
[3]
  pKi: 8.34
[4]
  pKi: 7.29
Homo sapiens [5]
  Ratio Ki: 11

## N=C(N)NCCC[C@H](NC(=O)[C@@H](NC(=O)[C@H](CCc1ccccc1)NC(=O)CCc1ccccc1)C1CCCCC1)C(=O)c1nc2ccccc2s1
[6]
  pKi: 6.21
[7]
  pKi: 8.28
Homo sapiens [8]
  Ratio Ki: 119
Prothrombin
  pKi: 6.40
Coagulation factor X
  pKi: < 5.00
Furin
  pKi: < 5.00
[10]
  pIC50: 6.48
[11]
  pIC50: 5.22
Homo sapiens [12]
  Ratio IC50: 18
[14]
  Stability: 100%
[15]
  t1/2: > 2 h
[16]
  CLH: 1.4 µL/min/mg
[17]
  Papp: 0.01 10^-6 cm/s
Caco-2
  pIC50: 5.21

## CCCC[C@H](NC(=O)[C@H](Cc1cscn1)NC(=O)CCc1ccccc1)C(=O)N[C@@H](CCCNC(=N)N)C(=O)c1nc2ccccc2s1
[1]
  inhibition: 20%
[2]
  inhibition: 20%

## CC[C@H](C)[C@H](NC(=O)[C@H](Cc1cscn1)NC(=O)CCc1ccccc1)C(=O)N[C@@H](CCCNC(=N)N)C(=O)c1nc2ccccc2s1
[3]
  pKi: 8.92
[4]
  pKi: 7.95
Homo sapiens [5]
  Ratio Ki: 9.4

## CCC[C@H](NC(=O)[C@H](Cc1cscn1)NC(=O)CCc1ccccc1)C(=O)N[C@@H](CCCNC(=N)N)C(=O)c1nc2ccccc2s1
[1]
  inhibition: 20%
[2]
  inhibition: 20%

## CC[C@@H](C)[C@H](NC(=O)[C@H](Cc1cscn1)NC(=O)CCc1ccccc1)C(=O)N[C@@H](CCCNC(=N)N)C(=O)c1nc2ccccc2s1
[3]
  pKi: 8.85
[4]
  pKi: 8.06
Homo sapiens [5]
  Ratio Ki: 6.3

## N=C(N)NCCC[C@H](NC(=O)[C@H](Cc1ccccc1)NC(=O)[C@H](Cc1cscn1)NC(=O)CCc1ccccc1)C(=O)c1nc2ccccc2s1
[3]
  pKi: 8.85
[4]
  pKi: 8.39
Homo sapiens [5]
  Ratio Ki: 2.9

## N=C(N)NCCC[C@H](NC(=O)[C@H](Cc1cccc2ccccc12)NC(=O)[C@H](Cc1cscn1)NC(=O)CCc1ccccc1)C(=O)c1nc2ccccc2s1
[3]
  pKi: 8.43
[4]
  pKi: 7.34
Homo sapiens [5]
  Ratio Ki: 12
[9]
  Activity: Non-Toxic

## N=C(N)NCCC[C@H](NC(=O)[C@H](Cc1ccc(C(=O)c2ccccc2)cc1)NC(=O)[C@H](Cc1cscn1)NC(=O)CCc1ccccc1)C(=O)c1nc2ccccc2s1
[1]
  inhibition: inactive
[2]
  inhibition: inactive

## CC[C@H](NC(=O)[C@H](Cc1cscn1)NC(=O)CCc1ccccc1)C(=O)N[C@@H](CCCNC(=N)N)C(=O)c1nc2ccccc2s1
[1]
  inhibition: 20%
[2]
  inhibition: 20%
